ChEMBL document CHEMBL5465560, “Selectivity Literature for EUbOPEN Chemogenomic Library” (2024)
Values belong to the compound of their own block, whether it stands above or below them.

Assays:
[1] = target: ALK tyrosine kinase receptor (Homo sapiens, UniProt Q9UM73); test: Selectivity interaction (KinaseProfiler screening (Millipore)) EUB0000601a ALK; settings: at 3 µM
[2] = target: Serine/threonine-protein kinase PLK1 (Homo sapiens, UniProt P53350); settings: at 10 µM
[3] = target: Casein kinase I isoform alpha (Homo sapiens, UniProt P48729); test: Selectivity interaction (Enzymatic assay) EUB0001199aCl CSNK1A1
Casein kinase I isoform alpha, sequence (P48729 whole entry, canonical isoform): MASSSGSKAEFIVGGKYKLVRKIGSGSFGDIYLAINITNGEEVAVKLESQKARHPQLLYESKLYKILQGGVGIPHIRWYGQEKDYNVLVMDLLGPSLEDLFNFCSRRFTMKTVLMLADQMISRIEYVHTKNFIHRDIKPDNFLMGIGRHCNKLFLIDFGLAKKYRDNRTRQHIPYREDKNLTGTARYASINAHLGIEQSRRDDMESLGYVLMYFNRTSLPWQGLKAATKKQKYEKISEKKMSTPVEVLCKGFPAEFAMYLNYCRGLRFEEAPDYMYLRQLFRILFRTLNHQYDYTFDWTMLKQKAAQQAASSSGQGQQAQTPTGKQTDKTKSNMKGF

[4] = target: Tyrosine-protein kinase Lck (Homo sapiens, UniProt P06239); test: Selectivity interaction (Kinase panel (literature)) EUB0001199aCl LCK; settings: at 1 µM
[5] = target: T1, Tyrosine-protein kinase Mer (Homo sapiens) (UniProt Q12866); test: Selectivity interaction (KinomeScan (DiscoverX)) EUB0000618a MERTK; settings: at 10 µM
T1 sequence (whole entry): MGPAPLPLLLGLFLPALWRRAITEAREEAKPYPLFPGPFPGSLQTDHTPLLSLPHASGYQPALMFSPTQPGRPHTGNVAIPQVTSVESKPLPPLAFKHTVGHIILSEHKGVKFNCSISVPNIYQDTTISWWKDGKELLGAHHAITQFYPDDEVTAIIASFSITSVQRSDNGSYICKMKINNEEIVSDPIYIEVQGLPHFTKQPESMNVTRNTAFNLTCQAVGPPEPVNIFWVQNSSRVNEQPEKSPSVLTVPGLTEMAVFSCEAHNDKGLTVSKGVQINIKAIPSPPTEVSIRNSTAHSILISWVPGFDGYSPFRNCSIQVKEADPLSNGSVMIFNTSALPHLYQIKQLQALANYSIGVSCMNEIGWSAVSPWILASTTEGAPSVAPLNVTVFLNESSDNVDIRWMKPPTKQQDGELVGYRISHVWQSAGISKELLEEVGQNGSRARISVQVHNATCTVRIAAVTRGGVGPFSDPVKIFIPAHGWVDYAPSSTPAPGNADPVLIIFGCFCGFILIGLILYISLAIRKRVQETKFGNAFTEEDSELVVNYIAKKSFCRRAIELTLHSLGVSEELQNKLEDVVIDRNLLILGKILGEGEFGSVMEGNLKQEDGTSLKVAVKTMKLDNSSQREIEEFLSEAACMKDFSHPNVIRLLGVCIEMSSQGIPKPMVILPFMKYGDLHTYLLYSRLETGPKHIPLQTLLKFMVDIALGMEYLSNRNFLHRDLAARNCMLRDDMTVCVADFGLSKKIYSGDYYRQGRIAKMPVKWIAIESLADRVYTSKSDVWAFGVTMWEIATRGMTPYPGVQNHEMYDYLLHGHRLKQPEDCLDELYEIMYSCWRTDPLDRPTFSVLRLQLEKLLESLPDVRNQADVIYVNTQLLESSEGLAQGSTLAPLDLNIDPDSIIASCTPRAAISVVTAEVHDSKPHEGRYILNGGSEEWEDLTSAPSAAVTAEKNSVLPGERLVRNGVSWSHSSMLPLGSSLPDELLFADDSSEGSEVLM

[6] = target: Casein kinase I isoform gamma-3 (Homo sapiens) (UniProt Q9Y6M4); test: Selectivity interaction (SelectScreen profiling (Invitrogen)) EUB0000607a CSNK1G3; settings: at 2 µM
[7] = test system: Leucine-rich repeat serine/threonine-protein kinase 2 (Homo sapiens), Q5S007 [G2019S]; test: (§1) Selectivity interaction (KinomeScan (DiscoverX)) EUB0000045b LRRK2
Leucine-rich repeat serine/threonine-protein kinase 2 (Homo sapiens), Q5S007 [G2019S], sequence (Q5S007 whole entry G2019S): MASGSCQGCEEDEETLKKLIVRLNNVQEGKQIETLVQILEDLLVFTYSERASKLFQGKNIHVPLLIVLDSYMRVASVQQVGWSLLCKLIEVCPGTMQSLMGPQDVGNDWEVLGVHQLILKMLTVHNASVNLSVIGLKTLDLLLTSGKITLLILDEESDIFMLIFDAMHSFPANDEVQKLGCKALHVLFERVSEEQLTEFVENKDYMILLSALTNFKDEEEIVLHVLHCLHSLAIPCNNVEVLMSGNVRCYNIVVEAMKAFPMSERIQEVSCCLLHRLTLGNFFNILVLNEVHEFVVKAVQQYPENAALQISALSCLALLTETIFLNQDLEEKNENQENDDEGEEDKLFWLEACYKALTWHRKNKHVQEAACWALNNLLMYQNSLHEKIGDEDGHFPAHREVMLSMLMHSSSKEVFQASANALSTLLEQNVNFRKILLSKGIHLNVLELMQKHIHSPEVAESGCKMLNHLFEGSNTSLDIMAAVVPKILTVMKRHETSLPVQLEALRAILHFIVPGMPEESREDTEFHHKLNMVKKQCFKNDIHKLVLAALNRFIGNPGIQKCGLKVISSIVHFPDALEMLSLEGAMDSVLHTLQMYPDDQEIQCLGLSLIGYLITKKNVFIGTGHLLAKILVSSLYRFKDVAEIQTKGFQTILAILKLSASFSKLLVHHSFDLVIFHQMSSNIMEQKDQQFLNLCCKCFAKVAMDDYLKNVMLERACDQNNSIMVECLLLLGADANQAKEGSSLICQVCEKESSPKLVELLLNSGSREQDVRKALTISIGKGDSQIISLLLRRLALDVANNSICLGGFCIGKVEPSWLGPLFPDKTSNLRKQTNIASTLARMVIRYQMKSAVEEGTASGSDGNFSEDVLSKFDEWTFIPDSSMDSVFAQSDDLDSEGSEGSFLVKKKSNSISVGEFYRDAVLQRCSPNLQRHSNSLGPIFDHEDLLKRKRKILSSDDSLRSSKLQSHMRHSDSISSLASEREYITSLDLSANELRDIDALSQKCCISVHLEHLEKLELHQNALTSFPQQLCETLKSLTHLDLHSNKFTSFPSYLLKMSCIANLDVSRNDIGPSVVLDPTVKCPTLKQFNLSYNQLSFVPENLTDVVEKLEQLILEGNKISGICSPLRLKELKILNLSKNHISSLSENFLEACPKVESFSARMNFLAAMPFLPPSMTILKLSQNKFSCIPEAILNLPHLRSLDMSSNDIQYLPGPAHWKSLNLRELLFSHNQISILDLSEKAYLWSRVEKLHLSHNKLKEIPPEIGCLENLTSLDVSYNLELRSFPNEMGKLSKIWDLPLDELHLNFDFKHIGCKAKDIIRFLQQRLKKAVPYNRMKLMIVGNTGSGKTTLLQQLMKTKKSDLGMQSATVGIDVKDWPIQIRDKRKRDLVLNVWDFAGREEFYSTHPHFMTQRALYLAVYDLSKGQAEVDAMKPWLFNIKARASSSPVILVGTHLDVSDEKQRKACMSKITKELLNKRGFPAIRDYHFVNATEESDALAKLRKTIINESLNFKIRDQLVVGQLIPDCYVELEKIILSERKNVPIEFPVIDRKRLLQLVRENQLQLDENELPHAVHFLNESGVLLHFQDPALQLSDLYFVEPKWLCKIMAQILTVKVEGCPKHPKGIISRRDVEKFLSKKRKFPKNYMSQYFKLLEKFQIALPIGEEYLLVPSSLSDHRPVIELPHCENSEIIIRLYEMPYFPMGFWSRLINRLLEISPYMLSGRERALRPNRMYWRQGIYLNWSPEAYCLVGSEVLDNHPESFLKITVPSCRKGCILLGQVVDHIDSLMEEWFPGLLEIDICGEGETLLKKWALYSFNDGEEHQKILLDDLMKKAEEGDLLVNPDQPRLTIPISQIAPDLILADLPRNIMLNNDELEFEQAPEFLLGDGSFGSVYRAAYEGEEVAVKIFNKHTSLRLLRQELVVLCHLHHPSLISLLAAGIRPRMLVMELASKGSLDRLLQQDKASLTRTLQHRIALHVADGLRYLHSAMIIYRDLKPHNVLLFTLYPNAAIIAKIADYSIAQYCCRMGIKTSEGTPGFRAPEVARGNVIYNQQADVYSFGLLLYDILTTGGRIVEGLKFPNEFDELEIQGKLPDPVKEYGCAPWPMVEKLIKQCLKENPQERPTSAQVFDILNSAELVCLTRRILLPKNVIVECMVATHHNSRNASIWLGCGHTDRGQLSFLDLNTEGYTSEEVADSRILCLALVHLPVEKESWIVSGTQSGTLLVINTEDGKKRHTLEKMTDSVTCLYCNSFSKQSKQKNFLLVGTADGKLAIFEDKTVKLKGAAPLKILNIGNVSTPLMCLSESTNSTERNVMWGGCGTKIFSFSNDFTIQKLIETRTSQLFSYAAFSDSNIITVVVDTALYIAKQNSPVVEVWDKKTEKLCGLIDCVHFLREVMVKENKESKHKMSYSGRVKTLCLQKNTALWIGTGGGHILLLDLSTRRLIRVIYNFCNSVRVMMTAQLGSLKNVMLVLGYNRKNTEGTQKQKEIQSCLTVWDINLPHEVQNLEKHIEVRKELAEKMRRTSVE

[8] = target: Leucine-rich repeat serine/threonine-protein kinase 2 (Homo sapiens, UniProt Q5S007); test: as §1
Leucine-rich repeat serine/threonine-protein kinase 2, sequence (Q5S007 whole entry): as the sequence (Q5S007 whole entry G2019S) above, with S2019G counted along it

[9] = test system: T2, Receptor-type tyrosine-protein kinase FLT3 (Homo sapiens), P36888 [K663Q]; settings: at 10 µM
T2 sequence (whole entry): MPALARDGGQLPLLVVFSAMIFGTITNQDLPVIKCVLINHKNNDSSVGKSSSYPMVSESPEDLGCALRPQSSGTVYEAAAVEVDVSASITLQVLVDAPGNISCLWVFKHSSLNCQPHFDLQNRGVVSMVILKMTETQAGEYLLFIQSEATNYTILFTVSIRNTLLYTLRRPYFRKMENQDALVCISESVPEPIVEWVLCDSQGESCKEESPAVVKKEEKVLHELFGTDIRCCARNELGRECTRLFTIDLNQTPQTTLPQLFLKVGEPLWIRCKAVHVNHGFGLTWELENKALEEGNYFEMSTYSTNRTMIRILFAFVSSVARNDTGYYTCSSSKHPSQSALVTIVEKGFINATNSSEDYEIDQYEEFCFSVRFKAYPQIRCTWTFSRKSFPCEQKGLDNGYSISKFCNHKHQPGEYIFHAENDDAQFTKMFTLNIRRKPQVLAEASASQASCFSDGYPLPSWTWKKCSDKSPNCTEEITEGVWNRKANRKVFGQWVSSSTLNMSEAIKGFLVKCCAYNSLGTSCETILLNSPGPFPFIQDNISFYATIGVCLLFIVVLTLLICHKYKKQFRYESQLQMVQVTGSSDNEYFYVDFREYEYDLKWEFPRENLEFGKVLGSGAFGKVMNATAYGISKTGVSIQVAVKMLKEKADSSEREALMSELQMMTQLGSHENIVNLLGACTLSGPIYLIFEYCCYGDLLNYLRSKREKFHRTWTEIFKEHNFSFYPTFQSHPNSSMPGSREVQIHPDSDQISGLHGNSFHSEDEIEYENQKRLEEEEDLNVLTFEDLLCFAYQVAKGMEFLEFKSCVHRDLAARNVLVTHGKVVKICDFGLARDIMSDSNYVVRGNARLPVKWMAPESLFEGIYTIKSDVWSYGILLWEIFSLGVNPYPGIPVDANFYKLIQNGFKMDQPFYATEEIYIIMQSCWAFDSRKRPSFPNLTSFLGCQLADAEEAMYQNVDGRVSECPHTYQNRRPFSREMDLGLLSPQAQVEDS

[10] = target: Serine/threonine-protein kinase Chk2 (Homo sapiens) (UniProt O96017); test: Selectivity interaction (ActivX KiNativ screen (kinase selectivity in THP-1 cell lysates)) EUB0000639a CHEK2; format: subcellular; settings: lysate, at 1 µM
[11] = target: Casein kinase II subunit alpha (Homo sapiens, UniProt P68400); test: Selectivity interaction (Kinase panel (Invitrogen)) EUB0000639a CSNK2A1; settings: at 200 nM
[12] = target: Tyrosine-protein kinase ABL2 (Homo sapiens, UniProt P42684); test: Selectivity interaction (KinomeScan (DiscoverX)) EUB0000666a ABL2; settings: at 10 µM
Tyrosine-protein kinase ABL2, sequence (P42684 whole entry): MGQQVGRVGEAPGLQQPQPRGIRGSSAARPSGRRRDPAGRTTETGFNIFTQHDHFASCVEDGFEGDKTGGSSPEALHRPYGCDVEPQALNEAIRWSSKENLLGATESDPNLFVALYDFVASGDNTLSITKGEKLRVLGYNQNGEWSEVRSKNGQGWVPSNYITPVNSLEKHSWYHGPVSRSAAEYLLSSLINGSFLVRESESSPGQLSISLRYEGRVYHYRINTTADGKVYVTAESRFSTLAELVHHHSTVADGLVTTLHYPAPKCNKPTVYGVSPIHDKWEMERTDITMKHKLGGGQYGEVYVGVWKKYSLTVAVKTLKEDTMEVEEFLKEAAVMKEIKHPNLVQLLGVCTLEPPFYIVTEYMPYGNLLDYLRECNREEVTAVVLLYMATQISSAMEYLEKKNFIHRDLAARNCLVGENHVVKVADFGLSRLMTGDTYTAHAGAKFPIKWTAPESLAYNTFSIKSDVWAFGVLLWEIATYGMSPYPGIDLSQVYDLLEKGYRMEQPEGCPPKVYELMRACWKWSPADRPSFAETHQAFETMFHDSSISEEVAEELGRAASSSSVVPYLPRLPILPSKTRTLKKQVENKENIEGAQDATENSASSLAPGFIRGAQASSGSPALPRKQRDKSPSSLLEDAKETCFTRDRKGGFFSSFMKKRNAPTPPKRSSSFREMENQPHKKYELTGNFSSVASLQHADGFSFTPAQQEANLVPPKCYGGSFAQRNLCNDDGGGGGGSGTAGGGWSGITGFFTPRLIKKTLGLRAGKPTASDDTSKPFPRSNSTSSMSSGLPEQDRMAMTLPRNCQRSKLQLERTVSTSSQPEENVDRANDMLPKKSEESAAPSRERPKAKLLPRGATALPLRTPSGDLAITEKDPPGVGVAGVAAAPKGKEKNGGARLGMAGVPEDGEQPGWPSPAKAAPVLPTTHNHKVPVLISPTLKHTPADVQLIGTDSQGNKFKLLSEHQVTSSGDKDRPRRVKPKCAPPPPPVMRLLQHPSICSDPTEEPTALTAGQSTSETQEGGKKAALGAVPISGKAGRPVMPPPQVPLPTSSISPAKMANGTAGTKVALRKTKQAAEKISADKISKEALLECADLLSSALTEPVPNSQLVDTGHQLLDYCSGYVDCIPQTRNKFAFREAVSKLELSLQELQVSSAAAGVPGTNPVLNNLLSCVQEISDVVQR

[13] = target: Myosin light chain kinase 2, skeletal/cardiac muscle (Homo sapiens) (UniProt Q9H1R3); test: Selectivity interaction (KinomeScan (DiscoverX)) EUB0000666a MYLK2; settings: at 10 µM
[14] = target: Ribosomal protein S6 kinase alpha-5 (Homo sapiens) (UniProt O75582); test: Selectivity interaction (KinomeScan (DiscoverX)) EUB0000666a RPS6KA5; settings: at 10 µM
Ribosomal protein S6 kinase alpha-5 (Homo sapiens), sequence (O75582 whole entry, looked up): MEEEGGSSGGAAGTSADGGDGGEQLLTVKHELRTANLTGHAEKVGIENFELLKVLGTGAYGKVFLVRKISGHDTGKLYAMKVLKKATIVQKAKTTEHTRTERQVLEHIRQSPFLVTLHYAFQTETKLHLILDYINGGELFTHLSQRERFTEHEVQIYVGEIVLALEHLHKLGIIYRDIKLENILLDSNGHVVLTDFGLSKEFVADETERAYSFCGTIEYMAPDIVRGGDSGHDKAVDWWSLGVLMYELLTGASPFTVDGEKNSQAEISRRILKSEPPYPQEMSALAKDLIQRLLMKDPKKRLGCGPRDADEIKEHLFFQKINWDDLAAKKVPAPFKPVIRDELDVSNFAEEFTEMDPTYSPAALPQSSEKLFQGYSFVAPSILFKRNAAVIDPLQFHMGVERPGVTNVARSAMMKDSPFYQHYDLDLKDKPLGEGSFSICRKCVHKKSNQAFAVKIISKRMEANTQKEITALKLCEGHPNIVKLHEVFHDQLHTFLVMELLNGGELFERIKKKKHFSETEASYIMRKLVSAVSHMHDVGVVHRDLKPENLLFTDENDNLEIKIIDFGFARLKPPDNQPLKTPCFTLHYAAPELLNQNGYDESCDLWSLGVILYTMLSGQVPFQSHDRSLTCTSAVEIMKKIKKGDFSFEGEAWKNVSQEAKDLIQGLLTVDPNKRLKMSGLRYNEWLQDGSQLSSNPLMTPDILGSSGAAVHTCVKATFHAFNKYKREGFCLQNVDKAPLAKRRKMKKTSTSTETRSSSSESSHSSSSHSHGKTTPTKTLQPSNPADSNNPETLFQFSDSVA

[15] = target: Serine/threonine-protein kinase/endoribonuclease IRE1 (Homo sapiens) (UniProt O75460); test: Selectivity interaction (KinomeScan (DiscoverX)) EUB0000695a ERN1; settings: at 100 nM

- % of inhibition [1]: 39%
Structure (SMILES): CCc1cc(Nc2nccc(-c3c(-c4ccc(OC)c(C(=O)Nc5c(F)cccc5F)c4)nc4ccccn34)n2)c(OC)cc1N1CCC(N2CCN(S(C)(=O)=O)CC2)CC1

- % of control [2]: 100%
Structure (SMILES): CCN(CC)CCCCNc1ncc2cc(-c3cc(OC)cc(OC)c3)c(NC(=O)NC(C)(C)C)nc2n1

- IC50 [3]: 630 nM
- % of inhibition [4]: 3%
Structure (SMILES): CN1Cc2nccc(-c3cn(C)nc3-c3ccc(F)cc3)c2C1=O

Structure (SMILES): O[C@H]1CC[C@H](Nc2ncc3nc(Nc4c(F)cc(F)cc4F)n([C@H]4CCOC4)c3n2)CC1
- % of control [5]: 17%

Structure (SMILES): CNC(=O)Nc1ccc(-c2nc(N3CC4CCC(C3)O4)c3cnn(C4CCC5(CC4)OCCO5)c3n2)cc1
- % of inhibition [6]: -1%

Structure (SMILES): C=CC(=O)Nc1cc(-n2c(=O)ccc3cnc4ccc(-c5ccc(NS(C)(=O)=O)cc5)cc4c32)ccc1C
- % of control ([7]; at 1 µM): 100%
- % of control ([7]; at 10 µM): 62%
- % of control ([8]; at 1 µM): 100%
- % of control ([8]; at 10 µM): 100%

Structure (SMILES): Cc1cc([C@@H](C)Nc2ccccc2C(=O)O)c2nc(N3CCOCC3)cc(=O)n2c1 [AZD-6482]
- % of control [9]: 13%

- % of inhibition [10]: 22.6%
- % of inhibition [11]: -1.15%
Structure (SMILES): CC[C@@H]1[C@H](F)C(=O)N[C@@H]1COc1nccc2cc(C(N)=O)c(OC)cc12 [ZIMLOVISERTIB]

Structure (SMILES): O=C(NOC[C@H](O)CO)c1ccc(F)c(F)c1Nc1ccc(I)cc1F
- % of control [12]: 90%
- % of control [13]: 100%
- % of control [14]: 87%

Structure (SMILES): Cc1cc(F)c(C(=O)Nc2cccc(-c3nncn3C(C)C)n2)cc1-n1cnc(C2CC2)c1
- % of control [15]: 88%
